The source of these data is US11040959B2, “Diprovocims: a new and potent class of TLR agonists” (The Scripps Research Institute, priority 2016, dated 2021).

Like-named read-outs stand apart in the source and are kept apart here. A value given as a limit tells only on which side of the number the result lay.

Assay [1] relates to differentiated human THP-1 cells. The assay is described as follows: stimulated release of TNF-α from differentiated human THP-1 cells (ELISA, dose-response). The assay is classed as cell-based. As to the method:
A screening campaign was conducted with nearly 100,000 compounds [(a) Whitby et al., Acc. Chem. Res. 2012, 45:1698-1709; and (b) Boger et al., Angew. Chem. Int. Ed. 2003, 42:4138-4176], using a newly developed functional assay that measured the stimulated release of TNF-α from treated human THP-1 cells partially differentiated along the macrophage line [unpublished results of the inventors and co-workers]. […] The libraries screened in the efforts represent a unique compound collection populated by nontraditional compounds [(a) Whitby et al., Acc. Chem. Res. 2012, 45:1698-1709; and (b) Boger et al., Angew. Chem. Int. Ed. 2003, 42:4138-4176] designed to target protein-protein [(a) Shaginian et al., J. Am. Chem. Soc. 2009, 131:5564-5572; and (b) Whitby et al., J. Am. Chem. Soc. 2011, 133:10184-10194] or protein-DNA interactions [Stover et al., J. Am. Chem. Soc. 2009, 131:3342-3348] as well as the major enzyme classes [Otrubova et al., Bioorg. Med. Chem. Lett. 2014, 24:3807-3813].
Hits were confirmed in an ELISA assay for stimulated TNF-α release from human PMA differentiated THP-1 cells and this assay was used for establishing dose-response curves and measured EC50 values.

In a further assay the test system is mouse macrophages. The assay is described as follows: stimulated release of TNF-α from mouse macrophages. The assay is classed as cell-based. The settings on record: Macrophage. The text has this: EC50 values are derived from dose-response curves for the stimulated release of TNF-α from differentiated THP-1 cells or mouse macrophages are shown beneath each appropriate structural formula of Compounds 8-12. Half maximal effective concentration (EC50) refers to the concentration of a drug, antibody or toxicant that induces a response halfway between the baseline and maximum after a specified exposure time. It is commonly used as a measure of a drug's potency.

The mark [2] stands for this setting: Homo sapiens, THP-1, Scheme 1, footnote a, read-out: EC50 TNF-α release from human THP-1 cells.
[3] abbreviates: Mus musculus, Scheme 1, footnote b, read-out: EC50 TNF-α release from mouse macrophages.
The mark [4] stands for this setting: Homo sapiens, THP-1, Table 3, TNF-α release from human THP-1 cells, read-out: EC50 (nM) (THP-1).
The mark [5] stands for this setting: Table 3, TNF-α release from mouse macrophages, read-out: EC50 (nM) (mouse).
[6] abbreviates: Homo sapiens, THP-1, Table 7, TNF-α release from human THP-1 cells, read-out: EC50 (nM) (THP-1).
[7] abbreviates: Table 7, TNF-α release from mouse macrophages, read-out: EC50 (nM) (mouse).
[8] abbreviates: Homo sapiens, THP-1, table of 133-139 (two lipid side chains), human THP-1 cells, read-out: EC50 (nM) (THP-1).
Setting [9] is: table of 133-139 (two lipid side chains), mouse macrophages, read-out: EC50 (nM) (mouse).

In the case of `O=C(N[C@H]1C[C@@H]1c1ccccc1)[C@H]1CN(C(=O)c2ccc(C(=O)N3C[C@@H](C(=O)N[C@H]4C[C@@H]4c4ccccc4)[C@H](C(=O)N[C@H]4C[C@@H]4c4ccccc4)C3)cc2)C[C@@H]1C(=O)N[C@H]1C[C@@H]1c1ccccc1` [Compound 22, (3S,4S)-1-(4-((3R,4R)-3,4-Bis(((1S,2R)-2-phenylcyclopropyl)carbamoyl)pyrrolidine-1-carbonyl)-benzoyl)—N^3,N^4-bis((1S,2R)-2-phenylcyclopropyl)-pyrrolidine-3,4-dicarboxamide], the EC50 is 3 nM in assay [1] (setting [2]) and 150 nM with mouse macrophages (setting [3]).

On to `C#CCOc1cc(C(=O)N2C[C@@H](C(=O)N[C@H]3C[C@@H]3c3ccccc3)[C@H](C(=O)N[C@H]3C[C@@H]3c3ccccc3)C2)ccc1C(=O)N1C[C@@H](C(=O)N[C@H]2C[C@@H]2c2ccccc2)[C@H](C(=O)N[C@H]2C[C@@H]2c2ccccc2)C1` [Compound 56, (3S,3′S,4S,4′S)-1,1′-(2-(Prop-2-yn-1-yloxy)-terephthaloyl)bis(N^3,N^4-bis((1S,2R)-2-phenylcyclo-propyl)pyrrolidine-3,4-dicarboxamide)], for which the EC50 came out at 15 nM in assay [1] (setting [4]) and 750 nM with mouse macrophages (setting [5]).

Regarding `O=C(COc1cc(C(=O)N2C[C@@H](C(=O)N[C@H]3C[C@@H]3c3ccccc3)[C@H](C(=O)N[C@H]3C[C@@H]3c3ccccc3)C2)ccc1C(=O)N1C[C@@H](C(=O)N[C@H]2C[C@@H]2c2ccccc2)[C@H](C(=O)N[C@H]2C[C@@H]2c2ccccc2)C1)NCC(=O)N[C@@H](CO)C(=O)O` [Compound 151, (2-(2,5-Bis((3S,4S)-3,4-bis(((1S,2R)-2-phenylcyclopropyl)carbamoyl)pyrrolidine-1-carbonyl)phenoxy)acetyl)glycyl-L-serine], the EC50 amounted to 0.24 nM in assay [1] (table of functionalized derivatives 147-151, human THP-1 cells, read-out: EC50 (nM) (THP-1)) and 270 nM with mouse macrophages (table of functionalized derivatives 147-151, mouse macrophages, read-out: EC50 (nM) (mouse)).

Turning to `O=C(NCCc1ccc(F)cc1)[C@@H]1CN(C(=O)c2ccc(-c3ccc(C(=O)N4C[C@@H](C(=O)NCCc5ccc(F)cc5)[C@H](C(=O)NCCc5ccc(F)cc5)C4)cc3)cc2)C[C@H]1C(=O)NCCc1ccc(F)cc1` [Compound 104, (3S,3′S,4S,4′S)-1,1′-([1,1′-Biphenyl]-4,4′-dicarbonyl)bis(N^3,N^4-bis(4-fluoro-phenethyl)-pyrrolidine-3,4-dicarboxamide)], the EC50 (in assay [1] (setting [6]); with mouse macrophages (setting [7])) was above 5000 nM in each case.

`O=C(N[C@H]1C[C@@H]1c1ccccc1)[C@H]1CN(C(=O)c2ccc(C(=O)N3C[C@H](C(=O)N[C@H]4C[C@@H]4c4ccccc4)[C@@H](C(=O)N[C@H]4C[C@@H]4c4ccccc4)C3)cc2)C[C@@H]1C(=O)N[C@H]1C[C@@H]1c1ccccc1` [Compound 19, (3R,3′R,4R,4′R)-1,1′-Terephthaloylbis(N^3,N^4-bis((1S,2R)-2-phenylcyclopropyl)pyrrolidine-3,4-dicarboxamide)]: the concentration giving a half-maximal response (EC50) (in assay [1] (setting [2]); in the assay with mouse macrophages (setting [3])) was above 5000 nM each time.

As to `CCCCCCCCCCNC(=O)[C@@H]1CN(C(=O)c2ccc(C(=O)N3C[C@@H](C(=O)N[C@H]4C[C@@H]4c4ccccc4)[C@H](C(=O)N[C@H]4C[C@@H]4c4ccccc4)C3)cc2)C[C@H]1C(=O)NCCCCCCCCCC` [Compound 136, (3S,4S)-1-(4-((3S,4S)-3,4-Bis(((1S,2R)-2-phenylcyclopropyl)carbamoyl)pyrrolidine-1-carbonyl)benzoyl)-N^3,N^4-didecylpyrrolidine-3,4-dicarboxamide], the EC50 in assay [1] (setting [8]) amounted to 0.28 nM; in the assay on mouse macrophages (setting [9]), 60 nM.

`O=C(N[C@H]1C[C@@H]1c1ccccc1)[C@@H]1CN(C(=O)c2ccc(C(=O)N3C[C@@H](C(=O)N[C@H]4C[C@@H]4c4ccccc4)[C@H](C(=O)N[C@H]4C[C@@H]4c4ccccc4)C3)nc2)C[C@H]1C(=O)N[C@H]1C[C@@H]1c1ccccc1` [Compound 51, (3S,3′S,4S,4′S)-1,1′-(Pyridine-2,5-dicarbonyl)-bis(N^3,N^4-bis((1S,2R)-2-phenylcyclopropyl)-pyrrolidine-3,4-dicarboxamide)]: the EC50 came to 4 nM in assay [1] (setting [4]) and 270 nM with mouse macrophages (setting [5]).

In the case of `O=C(N[C@H]1C[C@@H]1c1ccccc1)[C@@H]1CN(C(=O)[C@H]2CC[C@@H](C(=O)N3C[C@@H](C(=O)N[C@H]4C[C@@H]4c4ccccc4)[C@H](C(=O)N[C@H]4C[C@@H]4c4ccccc4)C3)CC2)C[C@H]1C(=O)N[C@H]1C[C@@H]1c1ccccc1` [Compound 43, (3S,3′S,4S,4′S)-1,1′-(cis-1,4-Cyclohexane-dicarbonyl)bis(N^3,N^4-bis((1S,2R)-2-phenylcyclopropyl)-pyrrolidine-3,4-dicarboxamide)], the EC50 in assay [1] (Homo sapiens, THP-1, Table 1, TNF-α release from human THP-1 cells, read-out: EC50 (nM) (THP-1)) was above 5000 nM; with mouse macrophages (Table 1, TNF-α release from mouse macrophages, read-out: EC50 (nM) (mouse)) it was above 5000 nM.

For the compound `O=C(NCCc1ccc(F)cc1)[C@@H]1CN(C(=O)c2ccc3cc(C(=O)N4C[C@@H](C(=O)NCCc5ccc(F)cc5)[C@H](C(=O)NCCc5ccc(F)cc5)C4)ccc3c2)C[C@H]1C(=O)NCCc1ccc(F)cc1` [Compound 109, (3S,3′S,4S,4′S)-1,1′-(Naphthalene-2,6-dicarbonyl)-bis(N^3,N^4-bis(4-fluorophenethyl)-pyrrolidine-3,4-dicarboxamide)], the EC50 (in assay [1] (setting [6]); with mouse macrophages (setting [7])) was above 5000 nM in each case.

Take `CCCCCCCCCCCCCCCCNC(=O)[C@@H]1CN(C(=O)c2ccc(C(=O)N3C[C@@H](C(=O)NCCCCCCCCCCCCCCCC)[C@H](C(=O)NCCCCCCCCCCCCCCCC)C3)cc2)C[C@H]1C(=O)NCCCCCCCCCCCCCCCC` [Compound 140, (3S,3′S,4S,4′S)-1,1′-Terephthaloylbis(N^3,N^4-dihexadecylpyrrolidine-3,4-dicarboxamide)]: the EC50 in assay [1] (Homo sapiens, THP-1, table of 140-146 (four lipid side chains), human THP-1 cells, read-out: EC50 (nM) (THP-1)) is above 5000 nM; in the assay on mouse macrophages (table of 140-146 (four lipid side chains), mouse macrophages, read-out: EC50 (nM) (mouse)), above 5000 nM.

Take `O=C(N[C@H]1C[C@@H]1c1ccccc1)[C@@H]1CN(C(=O)c2cc(O)c(C(=O)N3C[C@@H](C(=O)N[C@H]4C[C@@H]4c4ccccc4)[C@H](C(=O)N[C@H]4C[C@@H]4c4ccccc4)C3)cc2O)C[C@H]1C(=O)N[C@H]1C[C@@H]1c1ccccc1` [Compound 59, (3S,3′S,4S,4′S)-1,1′-(2,5-Dihydroxy-terephthaloyl)bis(N^3,N^4-bis((1S,2R)-2-phenylcyclo-propyl)-pyrrolidine-3,4-dicarboxamide)]: the EC50 in assay [1] (setting [4]) is 20 nM; with mouse macrophages (setting [5]), above 5000 nM.

Consider `O=C(NCCc1ccc(F)cc1)[C@@H]1CN(C(=O)c2ccc(C(=O)N3C[C@@H](C(=O)NCCc4ccc(F)cc4)[C@H](C(=O)NCCc4ccc(F)cc4)C3)c(O)c2)C[C@H]1C(=O)NCCc1ccc(F)cc1` [Compound 110, (3S,3′S,4S,4′S)-1,1′-(2-Hydroxy-terephthaloyl)-bis(N^3,N^4-bis(4-fluorophenethyl)-pyrrolidine-3,4-dicarboxamide)], for which the EC50 in assay [1] (setting [6]) was 130 nM; in the assay on mouse macrophages (setting [7]), above 5000 nM.

As for `CCCCCCCCCCCCCCNC(=O)[C@@H]1CN(C(=O)c2ccc(C(=O)N3C[C@@H](C(=O)N[C@H]4C[C@@H]4c4ccccc4)[C@H](C(=O)N[C@H]4C[C@@H]4c4ccccc4)C3)cc2)C[C@H]1C(=O)NCCCCCCCCCCCCCC` [Compound 134, (3S,4S)-1-(4-((3S,4S)-3,4-Bis(((1S,2R)-2-phenylcyclopropyl)carbamoyl)pyrrolidine-1-carbonyl)benzoyl)-N^3,N^4-ditetradecylpyrrolidine-3,4-dicarboxamide], the EC50 in assay [1] (setting [8]) came out at 1.3 nM; in the assay on mouse macrophages (setting [9]), 620 nM.
